Measured values reported in ChEMBL document CHEMBL5500352, “ML162 derivatives incorporating a naphthoquinone unit as ferroptosis/apoptosis inducers: Design, synthesis, anti-cancer activity, and drug-resistance reversal evaluation” (Eur J Med Chem, 2024).
Active and inactive are the calls of the source. No cut-off for these calls is given here.

What was measured:
HT-1080 [1] = assay: Induction of ferroptosis in human HT-1080 cells assessed as accumulation of lipid peroxidation at 10 uM after 6 hrs by BODIPYTM 581/591C11 probe based flow cytometry assay; type: functional, cell-based
[2] = Cytotoxicity against human HPNE cells; type: toxicity, cell-based
[3] = Selectivity index, ratio of IC50 for human HPNE cells to IC50 for human HT-1080 cells
HT-1080 [4] = assay: Induction of ferroptosis in human HT-1080 cells assessed as accumulation of lipid peroxidation at 1 to 4 uM after 12 hrs by BODIPYTM 581/591C11 probe based flow cytometry assay; type: functional, cell-based; conditions: dose 1-4 µM
HT-1080 [5] = assay: Induction of ferroptosis in human HT-1080 cells assessed as decrease in mitochondrial crests at 4 uM after 24 hrs by transmission electron microscope analysis; type: functional, cell-based
HT-1080 [6] = assay: Induction of ferroptosis in human HT-1080 cells assessed as appearance of broken outer membrane of mitochondria at 4 uM after 24 hrs by transmission electron microscope analysis; type: functional, cell-based
HT-1080 [7] = assay: Cytotoxicity against human HT-1080 cells assessed as cell viability at 4 uM in presence of fer-1 (reference value: 30%); type: functional; conditions: read-out: Activity
[8] = biological target: T1, Phospholipid hydroperoxide glutathione peroxidase GPX4 (Homo sapiens) (UniProt P36969); assay: Induction of GPX4 degradation in human HT-1080 cells at 2 uM after 24 hrs by Western blotting assay; type: cell-based
T1 sequence (whole entry): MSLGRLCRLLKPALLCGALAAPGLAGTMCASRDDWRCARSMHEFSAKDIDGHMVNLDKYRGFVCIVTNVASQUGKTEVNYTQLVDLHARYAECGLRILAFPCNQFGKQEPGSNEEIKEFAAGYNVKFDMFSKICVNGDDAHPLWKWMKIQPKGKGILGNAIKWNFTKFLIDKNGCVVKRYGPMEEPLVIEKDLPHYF

HT-1080 [9] = assay: Induction of apoptosis in human HT-1080 cells assessed as decrease in Bcl-2 level after 24 hrs by Western blotting analysis; type: functional, cell-based; conditions: dose 0.5-4 µM
HT-1080 [10] = assay: Induction of apoptosis in human HT-1080 cells assessed as viable cells at 1 uM incubated for 24 hrs by Annexin-V FITC/PI staining based flow cytometry analysis (reference value: 92.5%); type: functional; conditions: read-out: Activity
HT-1080 [11] = assay: Induction of apoptosis in human HT-1080 cells assessed as necrotic cells at 1 uM incubated for 24 hrs by Annexin-V FITC/PI staining based flow cytometry analysis (reference value: 3.98%); type: functional
HT-1080 [12] = assay: Induction of apoptosis in human HT-1080 cells assessed as viable cells at 2 uM incubated for 24 hrs by Annexin-V FITC/PI staining based flow cytometry analysis (reference value: 92.5%); type: functional; conditions: read-out: Activity
HT-1080 [13] = assay: Induction of apoptosis in human HT-1080 cells assessed as early apoptotic cells at 2 uM incubated for 24 hrs by Annexin-V FITC/PI staining based flow cytometry analysis (reference value: 1.85%); type: functional
HT-1080 [14] = assay: Induction of apoptosis in human HT-1080 cells assessed as late apoptotic cells at 2 uM incubated for 24 hrs by Annexin-V FITC/PI staining based flow cytometry analysis (reference value: 1.66%); type: functional
HT-1080 [15] = assay: Induction of apoptosis in human HT-1080 cells assessed as necrotic cells at 2 uM incubated for 24 hrs by Annexin-V FITC/PI staining based flow cytometry analysis (reference value: 3.98%); type: functional
HT-1080 [16] = assay: Induction of apoptosis in human HT-1080 cells assessed as early apoptotic cells at 4 uM incubated for 24 hrs by Annexin-V FITC/PI staining based flow cytometry analysis (reference value: 1.85%); type: functional
HT-1080 [17] = assay: Induction of apoptosis in human HT-1080 cells assessed as late apoptotic cells at 4 uM incubated for 24 hrs by Annexin-V FITC/PI staining based flow cytometry analysis (reference value: 1.66%); type: functional
HT-1080 [18] = assay: Induction of apoptosis in human HT-1080 cells assessed as necrotic cells at 4 uM incubated for 24 hrs by Annexin-V FITC/PI staining based flow cytometry analysis (reference value: 3.98%); type: functional
HT-1080 [19] = assay: Induction of apoptosis in human HT-1080 cells assessed as early apoptosis at 1 to 2 uM incubated for 48 hrs by Annexin-V FITC/PI staining based flow cytometry analysis; type: functional, cell-based; conditions: dose 1-2 µM
HT-1080 [20] = assay: Inhibition of colony formation in human HT-1080 cells incubated for 48 hrs followed by replacement with fresh media and measured after 12 days by crystal violet staining based assay; type: functional, cell-based; conditions: dose 1-2 µM
HT-1080 [21] = assay: Inhibition of cell migration in human HT-1080 cells incubated for 24 to 48 hrs by inverted microscope based wound healing assay; type: functional; conditions: dose 1-2 µM, time 24-48 hrs
HT-1080 [22] = assay: Antitumor activity against human HT-1080 cells xenografted in BALB/c nude mouse assessed as tumor growth inhibition at 40 mg/kg, ip administered once daily for 19 days and measured every 2 days; type: functional; conditions: HT-1080, 456 h, time 19 day, read-out: TGI
HT-1080 [23] = assay: Antitumor activity against human HT-1080 cells xenografted in ip dosed BALB/c nude mouse assessed as tumor growth inhibition administered once daily for 19 days and measured every 2 days; type: functional, organism-based; conditions: dose 20-40 mg/kg, time 19.0 day
HT-1080 [24] = assay: Antitumor activity against human HT-1080 cells xenografted in ip dosed BALB/c nude mouse assessed as reduction in GPX4 level administered once daily for 19 days and measured every 2 days by immunohistochemistry assay; type: functional, organism-based; conditions: dose 20-40 mg/kg, time 19.0 day
HT-1080 [25] = assay: Antitumor activity against human HT-1080 cells xenografted in ip dosed BALB/c nude mouse assessed as reduction in Bcl-2 level administered once daily for 19 days and measured every 2 days by immunohistochemistry assay; type: functional, organism-based; conditions: dose 20-40 mg/kg, time 19.0 day
[26] = Toxicity in BALB/c nude mouse xenografted with human HT-1080 cells assessed as change in kidney morphology at 20 to 40 mg/kg, ip administered once daily for 19 days and measured every 2 days by H and E staining based assay; type: organism-based; conditions: in vivo, 456 h, dose 20-40 mg/kg, time 19 day
[27] = Toxicity in BALB/c nude mouse xenografted with human HT-1080 cells assessed as cellular inflammation at 20 to 40 mg/kg, ip administered once daily for 19 days and measured every 2 days by H and E staining based assay; type: organism-based; conditions: in vivo, 456 h, dose 20-40 mg/kg, time 19 day
[28] = Toxicity in BALB/c nude mouse xenografted with human HT-1080 cells assessed as edema at 20 to 40 mg/kg, ip administered once daily for 19 days and measured every 2 days by H and E staining based assay; type: organism-based; conditions: in vivo, 456 h, dose 20-40 mg/kg, time 19 day
[29] = Toxicity in BALB/c nude mouse xenografted with human HT-1080 cells assessed as necrosis at 20 to 40 mg/kg, ip administered once daily for 19 days and measured every 2 days by H and E staining based assay; type: organism-based; conditions: in vivo, 456 h, dose 20-40 mg/kg, time 19 day
[30] = tested on: AMG 510-resistant MIA PaCa-2; assay: Cytotoxicity against human AAMG 510-resistant MIA PaCa-2 cells upto 5 uM; type: functional, cell-based
[31] = tested on: AMG 510-resistant MIA PaCa-2; assay: Cytotoxicity against human AAMG 510-resistant MIA PaCa-2 cells at 10 uM; type: functional, cell-based
[32] = Potentiation of AMG510 induced cytotoxicity in human AMG 510-resistant MIA PaCa-2 cells assessed as reduction in cell survival rate at 5 uM in presence of 10 nM AMG510 (reference value: 90%); type: functional

Activity [8]: Active
Compound: O=C(CCCCCNC1=CC(=O)c2ccccc2C1=O)Nc1ccc(N(C(=O)CCl)C(C(=O)NCCc2ccccc2)c2cccs2)cc1 (configuration not stated)
Activity (HT-1080 [1]): Active
IC50 [2]: 9.55 µM
Ratio IC50 [3]: 5.96
Activity (HT-1080 [4]): Active
Activity (HT-1080 [5]): Active
Activity (HT-1080 [6]): Active
viability at 4 µM (HT-1080 [7]): 66%
Activity (HT-1080 [9]): Dose-Dependent Effect
viability at 1 µM (HT-1080 [10]): 90.7%
Activity (HT-1080 [11]): 2.32%
viability at 2 µM (HT-1080 [12]): 82.7%
Activity (HT-1080 [13]): 8.48%
Activity (HT-1080 [14]): 4.75%
Activity (HT-1080 [15]): 4.02%
Activity (HT-1080 [16]): 9.04%
Activity (HT-1080 [17]): 7.99%
Activity (HT-1080 [18]): 3.03%
Activity (HT-1080 [19]): Active
inhibition (HT-1080 [20]): Dose-Dependent Effect
inhibition (HT-1080 [21]): Dose-Dependent Effect
inhibition in vivo at 40 mg/kg (HT-1080 [22]): 63%
Activity (HT-1080 [23]): Dose-Dependent Effect
Activity (HT-1080 [24]): Dose-Dependent Effect
Activity (HT-1080 [25]): Dose-Dependent Effect
Activity [26]: Non-Toxic
Activity [27]: Non-Toxic
Activity [28]: Non-Toxic
Activity [29]: Non-Toxic
Activity [30]: inactive
Activity [31]: Active
Activity [32]: ~10%
